Experimental data taken from patent US9725490B2, “ERAP1-derived peptide and use thereof” (TOKUSHIMA UNIVERSITY, priority 2011, dated 2017).

Tests used:
Assay type in all cases: cell-based, human
[1] = tested on: ERα binding to Her2, EGFR, IGF1-Rβ, PI3K; AKt and MAPK routes; experiment: Non-genomic activation route, immunoblotting, BT474
Description: FIG. 10-2 is a diagram illustrating that the ERAP1-peptide regulates E2-induced non-genomic activation route via IGF-1Rβ and Shc. […] BT-474 cells were treated with the ERAP1-peptide and/or E2 for 24 hours. Then, the cytoplasm fraction was immunoprecipitated with anti-ERα antibody.
FIG. 10-3 is a diagram illustrating that the ERAP1-peptide regulates E2-induced non-genomic activation route via IGF-1Rβ and Shc. […] BT-474 cells were treated with the ERAP1-peptide. Then, the phosphorylation levels of Akt and MAPK were evaluated by Western blotting. […] MCF-7 cells were treated with the ERAP1-peptide or the ERAP1-scramble peptide. The relative phosphorylation levels were quantified by densitometry analysis, and the ratio to the value at 0 hour in the untreated cells was calculated.

[2] = tested on: MCF-7 cells; experiment: E2-dependent cell proliferation assay (MTT/CCK-8), MCF-7
Description: FIG. 6-1 is a diagram illustrating that ERAP1-peptide treatment suppresses ERα-dependent cell proliferation of breast cancer cell lines. (A) and (B) show the results of MTT assay by which the inhibition effect of the ERAP1-peptide in the E2-dependent cell proliferation was evaluated. MCF-7 cells were treated with the ERAP1-peptide (A, B) the ERAP1-scramble peptide (B) or the ERAP1-mutant peptide (B).
FIG. 7-1 is a diagram illustrating that ERAP1-peptide treatment suppresses ERα-dependent cell proliferation of breast cancer cell lines. […] KPL-3C cells were treated with the ERAP1-peptide, the scramble peptide or the mutant peptide. Then, immediately, the cells were stimulated with 10 nM E2 for 24 hours. […] Then, immediately, the cells were stimulated with 10 nM E2. Then, the ERAP1-peptide was added every day for […]. […] The arrow indicates addition of the ERAP1-peptide.
FIG. 7-3 is a diagram illustrating that ERAP1-peptide treatment suppresses ERα-dependent cell proliferation of breast cancer cell lines. […] MCF-7 cells were treated with 10 μM ERAP1-peptide. Then, immediately, the cells were stimulated with 10 nM E2 (white square). Then, 10 μM ERAP1-peptide was added every day for four days (black square).
FIG. 20 is a diagram illustrating the results of evaluations for the influence of the difference of the sequence on E2-dependent cell proliferation suppression effect. […] Then, immediately, the cells were stimulated with E2 for 24 hours.
MCF-7 cells were suspended in MEM (Invitrogen, Carlsbad, Calif., USA) reinforced with 10% FBS (Nichirei Biosciences, Tokyo, Japan), 1% antibiotic/antimycotic solution (Invitrogen), 0.1 mM NEAA (Tnvitrogen), 1 mM sodium pyruvate and 10 μg/ml insulin (Sigma, St. Louis, Mo., USA). Then, the cell suspension was seeded in a 48-well plate (2×10^4 cells/200 μl), a 24-well plate (1×10^5 cells/1 ml), a 6-well plate (5×10^5 cells/2 ml) or 10 cm dish (2×10^6 cells/10 ml). The cells were maintained at 37° C. in humidified atmosphere containing 5% carbon dioxide. On the next day of the seeding, the culture medium was exchanged with phenol red-free DMEM/F12 (Invitrogen) reinforced with FBS, an antibiotic/antimycotic solution, NEAA, sodium pyruvate and insulin. After 24 hours, the cells were treated with 10 nM 17β estradiol (E2, Sigma). The ERAP-1 peptide was added just before the E2 stimulation in the inhibition test.
Using Cell-Counting Kit-8 (CCK-8, Dojindo, Kumamoto, Japan), the cell proliferation assay was performed. […] Then, the absorbance at 450 nm was measured and the number of living cells in each well was calculated.
The cell proliferation assay was evaluated using Cell-Counting Kit-8 (CCK-8, Dojindo, Kumamoto, Japan). […] Then, 100 μl from each well was moved to a 96-well plate, and the absorbance at 450 nm was measured with a microplate reader.

[3] = tested on: MCF-7 cells; experiment: E2-independent cell proliferation, MCF-7; settings: 1, 3, 5 and 10 μM, 24 hours
Description: FIG. 15 is a diagram illustrating the effects of the ERAP1-peptide on E2-independent cell functions. […] MCF-7 cells were treated with the ERAP1-peptide in each concentration (1, 3, 5 and 10 μM) or 10 nM tamoxifen as a positive control for 24 hours. […] MCF-7 cells were stimulated with 10 μM ERAP1-peptide treatment only, 10 nM E2 treatment only, or 10 μM ERAP1-peptide treatment and immediately 10 nM E2 for 24 hours, and the cytoplasm fraction was isolated from each of the treated cells. Then, the cytoplasm fraction was immunoprecipitated with anti-ERα antibody. Furthermore, with respect to the obtained sample, Western blotting analysis was performed using the antibodies shown in the figure.
MCF-7 cells or ZR-75-1 cells were seeded in 2×10^4/well, and KPL-3C cells were seeded in 1×10^4/well on a 48-well plate, and stood in a CO2 incubator for 24 hours. Then, for MCF-7 cells, the culture medium was exchanged with DMEM/F12 culture medium containing 10% FBS (Nichirei Biosciences, Tokyo, Japan), 1% antibiotic/antimycotic solution (Invitrogen), 0.1 mM NEAA48 (invitrogen), 1 mM sodium pyruvate and 10 μg/ml insulin (Sigma, St. Louis, Mo., USA) and not containing phenol red, and the cells were further pre-cultured for 24 hours. […] Then, 100 μl from each well was moved to a 96-well plate, and the absorbance at 450 nm was measured with a microplate reader.

`CSCC[C@H](NC(=O)[C@H](CCC(N)=O)NC(=O)[C@H](CCCNC(=N)N)NC(=O)[C@H](CCCNC(=N)N)NC(=O)[C@H](CCCNC(=N)N)NC(=O)[C@H](CCCNC(=N)N)NC(=O)[C@H](CCCNC(=N)N)NC(=O)[C@H](CCCNC(=N)N)NC(=O)[C@H](CCCNC(=N)N)NC(=O)[C@H](CCCNC(=N)N)NC(=O)[C@H](CCCNC(=N)N)NC(=O)[C@H](CCCNC(=N)N)NC(=O)[C@@H](N)CCCNC(=N)N)C(=O)N[C@@H](CC(C)C)C(=O)N[C@@H](CO)C(=O)N[C@@H](CC(=O)O)C(=O)N[C@@H](CC(C)C)C(=O)N[C@H](C(=O)N[C@@H](CC(C)C)C(=O)N[C@@H](CCC(N)=O)C(=O)N[C@@H](CC(C)C)C(=O)N[C@@H](CCCNC(=N)N)C(=O)N[C@@H](CCC(N)=O)C(=O)N[C@@H](CCCNC(=N)N)C(=O)O)[C@@H](C)O` [ERAP1-peptide] was tested, and the “bindings of ERα to Her2, EGFR, IGF1-Rβ and PI3K” value [1] was “all of the bindings of ERα to Her2, EGFR, IGF1-Rβ and PI3K were inhibited”, the E2-dependent cell proliferation ([2]; 10 nM E2, up to 24 hours) was “dose-dependently suppressed the E2-dependent cell proliferation” and the “proliferation of the E2-dependent breast cancer cells, repeated administration” value ([2]; 5 μM and 10 μM, every 24 hours for four days) was “completely suppressed”. For the same molecule, the “duration of E2-dependent proliferation suppression effect” value ([2]; 10 μM single addition) was “complete E2-dependent proliferation suppression effect was recognized up to 24 hours” and the “cell proliferation in the absence of E2” value [3] was “dose-dependent cell proliferation suppression effect”.
